How the values were obtained:
[1] = Stability studies comparing phosphoric acid with citric acid and antioxidants/stabilizers (films stored at 50 C); conditions: compared with film made with only phosphoric acid, 50 C. for two weeks
[2] = administered orally; cited from earlier work

Molecule	degradation products / impurity profile of psilocybin film with stabilizer or acid [1]	degradation products / impurity profile of psilocybin film with stabilizer or acid ([1]; listed as copper)	drug absorbed into the bloodstream [2]	time of maximum plasma concentration [2]
Cc1cc(C(C)(C)C)c(O)c(C(C)(C)C)c1 [BHT]	promoting the degradation			
[Cl][Cu][Cl] [copper chloride, Copper (II) chloride]	no effect	promoting the degradation		
CN(C)CCc1c[nH]c2cccc(OP(=O)(O)O)c12 [psilocybin]			about 50%	approximately 80 minutes
vitamin E	promoting the degradation			

Reference: US12440472B2, “Stable tryptamine oral films” (INTELGENX CORP., priority 2021, dated 2025)
